From publication PMC9804224, “Statin activation of skeletal ryanodine receptors (RyR1) is a class effect but separable from HMG‐CoA reductase inhibition” (British Journal of Pharmacology, 2022)
Each block holds one compound with its values, some of them ahead of it.

Tests used:
Assay type in all cases: biochemical
[1] = molecular target: T1, skeletal ryanodine receptor (RyR1) (Ovis aries, UniProt A0ACI6NWU0); experiment: single-channel recording in planar lipid bilayers (activation); also [3H]ryanodine binding EC50 […]; parameters: native RyR1 channels from skeletal muscle heavy SR vesicles
[2] = molecular target: T1, skeletal ryanodine receptor (RyR1); experiment: increase of [3H]ryanodine binding to SR membrane vesicles (channel activation); parameters: native RyR1 in skeletal muscle SR membrane vesicles
[3] = molecular target: T1, skeletal ryanodine receptor (RyR1); experiment: single-channel recording in planar lipid bilayers (activation); also [3H]ryanodine binding EC50 […]; parameters: native RyR1 channels from skeletal muscle heavy SR vesicles; remark: listed apart in the source

EC50 [1]: 0.13 µM
SMILES: COCc1c(C(C)C)nc(C(C)C)c(/C=C/[C@@H](O)C[C@@H](O)CC(=O)O)c1-c1ccc(F)cc1 [cerivastatin]

EC50 ([2]; read-out: EC50): 0.49 µM
SMILES: CC(C)c1nc(N(C)S(C)(=O)=O)nc(-c2ccc(F)cc2)c1/C=C/[C@@H](O)C[C@@H](O)CC(=O)O [rosuvastatin]

EC50 [3]: 0.029 µM
SMILES: CC(C)c1c(C(=O)Nc2ccccc2)c(-c2ccccc2)c(-c2ccc(F)cc2)n1CC[C@@H](O)C[C@@H](O)CC(=O)O [atorvastatin]

SMILES: CC[C@H](C)C(=O)O[C@H]1C[C@H](O)C=C2C=C[C@H](C)[C@H](CC[C@@H](O)C[C@@H](O)CC(=O)O)[C@H]21 [pravastatin]
EC50 [2]: 0.44 µM
